Experimental findings from patent US20100210597A1, “C21-Deoxy Ansamycin Derivatives as Antitumor Agents” (priority 2007, published 2010) are described below.

One data set has as its system CXF HT29. Nature of the data set: Monolayer proliferation assay (modified propidium iodide), CXF HT29. It is filed as cell-based, human. Particulars: average of 2 experiments. As for the experimental part:
In vitro evaluation of compounds for anticancer activity in a panel of human tumour cell lines in a monolayer proliferation assay was carried out at the Oncotest Testing Facility, Institute for Experimental Oncology, Oncotest GmbH, Freiburg.
The Oncotest cell lines are established from human tumor xenografts as described by Roth et al., (1999). The origin of the donor xenografts is described by Fiebig et al., (1999). Other cell lines are either obtained from the NCl (DU145, MCF-7) or purchased from DSMZ, Braunschweig, Germany.
All cell lines, unless otherwise specified, are grown at 37° C. in a humidified atmosphere (95% air, 5% CO2) in a ‘ready-mix’ medium containing RPMI 1640 medium, 10% fetal calf serum, and 0.1 mg/mL gentamicin (PAA, Cölbe, Germany).
A modified propidium iodide assay was used to assess the effects of the test compound(s) on the growth of six human tumour cell lines (Dengler et al., (1995)).
Briefly, cells are harvested from exponential phase cultures by trypsinization, counted and plated in 96 well flat-bottomed microtitre plates at a cell density dependent on the cell line (5-10.000 viable cells/well). After 24 h recovery to allow the cells to resume exponential growth, 0.010 mL of culture medium (6 control wells per plate) or culture medium containing macbecin were added to the wells. Each concentration is plated in triplicate. Compounds were applied in two concentrations (0.001 mM and 0.01 mM). Following 4 days of continuous exposure, cell culture medium with or without test compound was replaced by 0.2 mL of an aqueous propidium iodide (P1) solution (7 mg/L). To measure the proportion of living cells, cells were permeabilized by freezing the plates. After thawing the plates, fluorescence was measured using the Cytofluor 4000 microplate reader (excitation 530 nm, emission 620 nm), giving a direct relationship to the total number of viable cells.
Growth inhibition is expressed as treated/control×100 (% T/C).
In vitro evaluation of the test compound, 20, for anticancer activity in a panel of human tumour cell lines in a monolayer proliferation assay was carried out as described in the general methods using a modified propidium iodide assay.

The nature of data set [1]: Whole blood cleavage assay, human blood. It is filed as in vitro ADME. Particulars: 10 uM, 37° C., two hours. As for the experimental part:
Human whole blood (single donor, batch HBE4534) was obtained from First Link UK Ltd. Mouse whole blood (pool of 10, batch 07-2470) was obtained from Harlan UK. Blood was collected into tubes containing EDTA as anticoagulant and shipped on ice. Blood was used on the day of arrival. In the case of human whole blood incubations were undertaken both on the fresh blood and also after freezing the blood followed by thawing. Control compounds were Lidocaine, Bisacodyl and Simvastatin.
All test compounds were incubated at 10 uM in whole blood at 37° C. At selected time points, 0.1 ml of blood was mixed with 0.3 ml of acetonitrile and vortexed immediately. All samples were centrifuged and supernatant were diluted with same volume of deionized water. […] For 20 sample analysis, mass spectrometry monitored both 17 and 20. […]
The Half life, for the disappearance of 20, was determined according to the relationship: […]
Blood cleavage assays were run to confirm that 20 acts as a prodrug and cleaves to produce compound 17 when incubated with human and mouse blood, as described in the general methods. The compound was incubated in human or mouse blood with samples removed over two hours, and analysed by LC MS/MS for presence of 20 and 17 (see FIG. 6). […] Due to the differing responses of 17 and 20 on mass spectrometry it was not possible to quantify the extent of conversion of 20 to 17.

Data set [2] is described as follows: In vivo pharmacokinetic assay in mice. Set-up: species or system mouse. Particulars: female CD-1 mice. As for the experimental part: The test compound was prepared directly in endotoxin free water. A single dose of 10 mg/kg p.o. or 3 mg/kg i.v. was administered to groups of female CD1 mice (3 mice for each compound per time point). Dose volumes were 10 mL/kg for both oral and intravenous administration. At 4 minutes and 0.25, 0.5, 1, 2, 4, 8, 24 hours groups were sacrificed and plasma was collected from each mouse for further analysis. For oral dosing, a single dose of Test Article was administered via oral gavage to the mice. For intravenous dosing, a single dose of Test article was administered intravenously to mice via the tail veins.
The concentration of the relevant compounds in the plasma samples was determined by HPLC with MS detection.
• Mass spectrometer: API 3200 Q Trap triple quadruple mass spectrometer • Liquid chromatography: Agilent 1200/PAL HTC Autosampler • Ionization Mode: Electrospray (may be changed depending on the TA) • Monitoring: Multiple Reaction Monitoring • LC chromatography BetaBastic-8, 50×2.1 mm, 5 μm (may separation: be changed depending on the TA)
Based on the peak area ratios of test article to an internal standard, 17-Methoxyethylamino Geldanamycin (Schnur et al., 1995), concentrations of an unknown sample were obtained by a calibration curve.
Test plasma sample (0.05 ml), analyte free mouse whole serum (0.05 ml), internal standard solution (0.1 ml of 10 mg/mL 17-Methoxyethylamino geldanamycin (Schnur et al., 1995) dissolved in methanol) and acetonitrile (0.5 ml) were pipetted into a 2-mL polypropylene tube and the contents of the tubes were mixed for a minimum of 5 minutes (Vibrax mixer). The tubes were then centrifuged in a microfuge for a minimum of 2 minutes at 12,000 rpm. 0.1 ml of the solvent layer was transferred into a 2-mL polypropylene tube containing 1 mL acid diluent (0.1% formic acid). The tubes were then mixed for a minimum of 5 minutes (Vibrax mixer) and then centrifuged at approximately 3500 rpm for 5 minutes. The extracts were transferred to auto-sampler vials and placed in the auto sampler tray which was set at ambient temperature. The auto-sampler was programmed to inject a 0.005 ml aliquot of each extract onto the analytical column.
In vivo confirmation of the cleavage of 20 to the parent molecule, 17, was carried out as described in the general methods.
Female CD-1 mice were given single doses of 20, either intravenously at 3 mg/kg, or orally at 10 mg/kg. Plasma samples were then collected at 8 time points (0.067, 0.25, 0.5, 1, 2, 4, 8 and 24 h postdose) over a 24-h period. The amounts of 20 and 17 in the samples were then analysed. […] After iv administration, 20 was only detected up to 0.25 hours after dosing, whilst 17 was detected up to 4 hours after dosing.

For the compound `CO[C@H]1C[C@H](C)Cc2cc(cc(OP(=O)(O)O)c2)NC(=O)/C(C)=C/CC[C@H](C)[C@@H](OC(N)=O)/C(C)=C/[C@H](C)[C@H]1O` [Compound 20, 4,5-dihydro-11-O-demethyl-15-demethoxy-18,21-didehydro-21-deoxomacbecin-18-phosphate], the “Test/Control (%) at drug concentration (μg/mL)” value in the data set with CXF HT29 (CXF HT29, 0.01 μg/mL) worked out at 112%; in the data set with CXF HT29 (CXF HT29, 0.1 μg/mL) it was 43%; in the data set on CXF HT29 (CXF HT29, 1 μg/mL), 7%; in the data set with CXF HT29 (CXF HT29, 10 μg/mL) it was 7%; in the data set on CXF HT29 (CXF HT29, 100 μg/mL), 5%. Also, in data set [1], the conversion in blood result was “act as a prodrug and release 17”. For the same compound, the “detected in plasma up to (time after dosing)” value in data set [2] (single intravenous dose of 20 at 3 mg/kg) is “up to 0.25 hours”; in data set [2] (single oral dose of 20 at 10 mg/kg) it was “not seen in the plasma”.
